Assay results published in patent US20100119479A1, “THERAPEUTIC ANTIVIRAL PEPTIDES” (INTERMUNE, INC., priority 2008, published 2010).

Key:
[1] = test system: HCV sub-genomic replicon, GS4.3 (HuH-7 hepatoma cells); experiment: Quantitation by ELISA of NPTII in the HCV sub-genomic replicon, GS4.3; format: cell-based; conditions: Hepatitis C virus, GS4.3 replicon cells, 72 h incubation
From the text: Quantitation by ELISA of the Selectable Marker Protein, Neomycin Phosphotransferase II (NPTII) in the HCV Sub-Genomic Replicon, GS4.3
The HCV sub-genomic replicon (1377/NS3-3′, accession No. AJ242652), stably maintained in HuH-7 hepatoma cells, was created by Lohmann et al. Science 285: 110-113 (1999). The replicon-containing cell culture, designated GS4.3, was obtained from Dr. Christoph Seeger of the Institute for Cancer Research, Fox Chase Cancer Center, Philadelphia, Pa.
GS4.3 cells were maintained at 37° C., 5% CO2, in DMEM (Gibco 11965-092) supplemented with L-glutamine 200 mM (100×) (Gibco25030-081), non-essential amino acids (NEAA)(Biowhittaker 13-114E), heat-inactivated (HI) Fetal Bovine Serum(FBS)(Hyclone SH3007.03) and 750 μg/mL geneticin (G418)(Gibco 10131-035). Cells were sub-divided 1:3 or 4 every 2-3 days.
24 h prior to the assay, GS4.3 cells were collected, counted, and plated in 96-well plates (Costar 3585) at 7500 cells/well in […] standard maintenance medium (above) and incubated in the conditions above. To initiate the assay, culture medium was removed, cells were washed once with PBS (Gibco 10010-023) and 90 μl Assay Medium (DMEM, L-glutamine, NEAA, 10% HI FBS, no G418) was added. Inhibitors were made as a 10× stock in Assay Medium, (3-fold dilutions from 10 μM to […] final concentration, final DMSO concentration 1%), […] were added to duplicate wells, plates were rocked to mix, and incubated as above for 72 h.
An NPTII Elisa kit was obtained from AGDIA, Inc. (Compound direct ELISA test system for Neomycin Phosphotransferase II, PSP 73000/4800). Manufacturer's instructions were followed, with some modifications. 10×PEB-1 lysis buffer was made up to include 500 μM PMSF (Sigma P7626, 50 mM stock in isopropanol). After 72 h incubation, cells were washed once with PBS and […] PEB-1 with PMSF was added per well. Plates were agitated vigorously for 15 minutes, room temperature, then frozen at −70° C. Plates were thawed, lysates were mixed thoroughly, and 100 μl were applied to an NPTII Elisa plate. A standard curve was made. Lysate from DMSO-treated control cells was pooled, serially diluted with PEB-1 with PMSF, and applied to duplicate wells of the ELISA plate, in a range of initial lysate amount of 150 μL-2.5 μL. In addition, 100 μL buffer alone was applied in duplicate as a blank. Plates were sealed and gently agitated at room temperature for 2 h. Following capture incubation, the plates were washed 5×300 μL with PBS-T (0.5% Tween-20, PBS-T was supplied in the ELISA kit). For detection, a 1× dilution of enzyme conjugate diluent MRS-2 (5×) was made in PBS-T, into which 1:100 dilutions of enzyme conjugates A and B were added, as per instructions. Plates were resealed, and incubated with agitation, covered, room temperature, for 2 h. The washing was then repeated and 100 μL, of room temperature TMB substrate was added. After approximately 30 minutes incubation (room temperature, agitation, covered), the reaction was stopped with 50 μL, 3M sulfuric acid. Plates were read at 450 nm on a Molecular Devices Versamax plate reader.
Inhibitor effect was expressed as a percentage of DMSO-treated control signal, and inhibition curves were calculated using a 4-parameter equation: y=A+((B−A)/(1+((C/x)̂D))), where C is half-maximal activity or EC50.

[2] = biological target: T1, full-length NS3/NS4A-2 (HCV NS3 protease) (Hepatitis C virus genotype 1b, UniProt Q9WMX2); experiment: NS3 Inhibition Assay (NS3-NS4 protease assay, RETS1 substrate); format: biochemical; conditions: NS3/NS4A-2 protease
T1 construct: Recombinant E. coli or Baculovirus full-length NS3; host or cells: E. coli or baculovirus (BV) expression
Procedure: NS3 Complex Formation with NS4A-2.
Recombinant E. coli or Baculovirus full-length NS3 was diluted to 3.33 μM with assay buffer and transferred material to an eppendorf tube and placed in a water bath in a 4° C. refrigerator. The appropriate amount of NS4A-2 diluted to […] in assay buffer was added to equal the volume of NS3 above (conversion factor—3.8 mg/272 μL assay buffer). The material was transferred to an eppendorf tube and placed in water bath in a 4° C. refrigerator.
After equilibration to 4° C., equal volumes of NS3 and NS4A-2 solutions were combined in an eppendorf tube, mix gently with a manual pipettor, and incubate mixture for 15 minutes in the 4° C. water bath. Final concentrations in the mixture are 1.67 μM NS3, 4.15 mM NS4A-2 (2485-fold molar excess NS4A-2).
After 15 minutes at 4° C., the NS3/NS4A-2 eppendorf tube was removed and place it in a room temperature water bath for 10 minutes. NS3/NS4A-2 was aliquoted at appropriate volumes and store at −80° C. (E. coli NS3 run at 2 nM in assay, aliquot at 25 μL. BV NS3 run at 3 nM in assay, aliquot at 30 μL).
Step a. Sample compounds were dissolved to 10 mM in DMSO then diluted to 2.5 mM (1:4) in DMSO. Typically, compounds were added to an assay plate at 2.5 mM concentration, yielding upon dilution a starting concentration of 50 microM in the assay inhibition curve. Compounds were serial diluted in assay buffer to provide test solutions at lower concentrations.
Step b. The E. coli. NS3/NS4A-2 was diluted to 4 nM NS3 (1:417.5 of 1.67 μM stock−18 μL1.67 μM stock+7497 μL assay buffer). The BV NS3/NS4A-2 was diluted to 6 nM NS3 (1:278.3 of 1.67 μM stock−24 μL1.67 μM stock+6655 μL assay buffer).
Step c. Using the manual multichannel pipettor, and being careful not to introduce bubbles into the plate, 50 μL assay buffer were added to wells A01-H01 of a black Costar 96-well polypropylene storage plate.
Step d. Using the manual multichannel pipettor, and being careful not to introduce bubbles into the plate, 50 μL of diluted NS3/NS4A-2 from Step b were added to wells A02-H12 of the plate in Step c.
Step e. Using the manual multichannel pipettor, and being careful not to introduce bubbles into the plate, 25 μL of the wells in drug dilution plate in Step a were transferred to corresponding wells in assay plate in Step d. The tips on the multichannel pipettor were changed for each row of compounds transferred.
Step f Using the manual multichannel pipettor, and being careful not to introduce bubbles into the plate, the contentes of the wells from the assay plate in Step e were mixed by aspirating and dispensing 35 μL of the 75 μL in each well five times. The tips on multichannel pipettor were changed for each row of wells mixed.
Step g. The plate was covered with a polystyrene plate lid, and the plate from Step f containing NS3 protease and sample compounds was pre-incubated 10 minutes at room temperature.
While plate from Step g is pre-incubating, the RETS1 substrate was diluted in a 15 mL polypropylene centrifuge tube. The RETS1 substrate was diluted to 8 μM (1:80.75 of 646 μM stock—65 μL 646 μM stock+5184 μL assay buffer).
After the plate in Step g was done pre-incubating, and using the manual multichannel, 25 μL of substrate were added to all wells on the plate. The contents of the wells of the plate were quickly mixed, as in Step f, mixing 65 μL of the 100 μL in the wells.
The plate was read in kinetic mode on the Molecular Devices SpectraMax Gemini XS plate reader. Reader settings: Read time: 30 minutes, Interval: 36 seconds, Reads: 51, Excitation λ: 335 nm, Emission λ: 495 nm, cutoff: 475 nm, Automix: off, Calibrate: once, PMT: high, Reads/well: 6, Vmax pts: 21 or 28/51 depending on length of linearity of reaction
IC50s are determined using a four parameter curve fit equation, and converted to Ki's using the following Km's: […]
Full-length E. coli NS3−2.03 μM
Full-length BV NS3−1.74 μM
where Ki=IC50/(1+[S]/Km))

T1 sequence (Q9WMX2 1027-1657): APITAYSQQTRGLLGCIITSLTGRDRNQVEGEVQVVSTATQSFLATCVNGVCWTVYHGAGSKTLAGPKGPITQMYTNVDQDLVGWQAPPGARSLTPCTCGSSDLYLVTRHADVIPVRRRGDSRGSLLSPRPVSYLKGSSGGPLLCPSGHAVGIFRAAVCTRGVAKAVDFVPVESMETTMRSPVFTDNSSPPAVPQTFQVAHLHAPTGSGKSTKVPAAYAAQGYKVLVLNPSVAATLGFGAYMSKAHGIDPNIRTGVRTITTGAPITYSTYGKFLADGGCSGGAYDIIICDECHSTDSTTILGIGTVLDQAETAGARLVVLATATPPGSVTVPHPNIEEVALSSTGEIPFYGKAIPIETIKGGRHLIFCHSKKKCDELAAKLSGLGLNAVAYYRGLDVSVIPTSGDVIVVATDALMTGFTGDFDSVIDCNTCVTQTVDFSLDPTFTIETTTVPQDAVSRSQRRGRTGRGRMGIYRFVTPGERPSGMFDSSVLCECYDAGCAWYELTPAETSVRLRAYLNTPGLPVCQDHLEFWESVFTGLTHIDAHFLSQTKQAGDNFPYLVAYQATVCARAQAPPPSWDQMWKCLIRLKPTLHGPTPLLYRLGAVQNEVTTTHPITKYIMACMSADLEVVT
T1 sequence (Q9WMX2 1658-1711): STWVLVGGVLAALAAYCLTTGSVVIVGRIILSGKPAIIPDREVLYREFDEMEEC

Row | SMILES | EC50 [1] [nM] | IC50 [2] [nM]
1 | CC[C@@H]1C[C@]1(NC(=O)[C@@H]1C[C@@H](Oc2nc3ccccc3s2)CN1C(=O)[C@@H](Nc1cccc(C(F)(F)F)c1)C(C)(C)C)C(=O)NS(=O)(=O)C1(C)CC1 [Compound 231] | < 100 | < 100
2 | CC(C)(C)[C@H](Nc1cccc(C(F)(F)F)c1)C(=O)N1C[C@H](OC(=O)N2Cc3cccc(Cl)c3C2)C[C@H]1C(=O)N[C@]1(C(=O)NS(=O)(=O)C2CC2)C[C@H]1C1CC1 [Compound 293] | < 100 | < 100
3 | CC[C@@H]1CC1(NC(=O)[C@@H]1C[C@@H](OC(=O)N2Cc3cccc(Cl)c3C2)CN1C(=O)[C@@H](Nc1cccnc1)C(C)(C)C)C(=O)NS(=O)(=O)C1CC1 (some centres unmarked) [Compound 1] | < 100 | < 100
4 | CC[C@@H]1C[C@]1(NC(=O)[C@@H]1C[C@@H](Oc2cc(-c3nc(C(C)C)cs3)nc3c(C)c(OC)ccc23)CN1C(=O)[C@@H](Nc1ccc(F)c(C(F)(F)F)c1)C(C)(C)C)C(=O)NS(=O)(=O)C1(C)CC1 [Compound 301] | < 100 | < 100
5 | CC[C@@H]1C[C@]1(NC(=O)[C@@H]1C[C@@H](OC(=O)N2Cc3ccc(NCCN4CCOCC4)cc3C2)CN1C(=O)[C@@H](Nc1cc(F)cc(C(F)(F)F)c1)C(C)(C)C)C(=O)NS(=O)(=O)C1(C)CC1 [Compound 314] | < 100 | < 100
6 | C=C[C@@H]1C[C@]1(NC(=O)[C@@H]1C[C@@H](Oc2cc(-c3nc(C(C)C)cs3)nc3c(C)c(OC)ccc23)CN1C(=O)[C@@H](Nc1cc(F)cc(OC(F)(F)F)c1)C(C)(C)C)C(=O)NS(=O)(=O)C1(C)CC1 [Compound 404] | < 100 | < 100
7 | C=C[C@@H]1C[C@]1(NC(=O)[C@H]1Cc2cc(Oc3cccc(Cl)c3)ccc2CN1C(=O)[C@@H](Nc1cccc(C(F)(F)F)c1)C(C)(C)C)C(=O)NS(=O)(=O)C1CC1 [Compound 24] | > 1000 | < 100
8 | C=C[C@@H]1C[C@]1(NC(=O)[C@@H]1C[C@@H](OC(=O)N2Cc3cccc(F)c3C2)CN1C(=O)[C@@H](Nc1cc(F)cc(C(F)(F)F)c1)C(C)(C)C)C(=O)NS(=O)(=O)C1(C)CC1 [Compound 288] | < 100 | < 100
9 | CCOC(=O)c1cccc(N[C@H](C(=O)N2C[C@H](OC(=O)N3Cc4cccc(F)c4C3)C[C@H]2C(=O)N[C@]2(C(=O)NS(=O)(=O)C3CC3)C[C@H]2CC)C(C)(C)C)c1 [Compound 4] | 100 to 1000 | < 100
10 | CC[C@@H]1C[C@]1(NC(=O)[C@@H]1C[C@@H](Oc2cc(-c3nc(C(C)C)cs3)nc3c(C)c(OC)ccc23)CN1C(=O)[C@@H](Nc1ccccc1)C(C)(C)C)C(=O)NS(=O)(=O)C1CC1 [Compound 352] | < 100 | < 100
11 | CC(C)(C)[C@H](Nc1ccc(F)c(C(F)(F)F)c1)C(=O)N1C[C@H](OC(=O)N2Cc3cccc(Cl)c3C2)C[C@H]1C(=O)N[C@]1(C(=O)NS(=O)(=O)C2(C)CC2)C[C@H]1C1CC1 [Compound 310] | < 100 | < 100
12 | CC(C)(C)[C@H](Nc1cc(F)cc(C(F)(F)F)c1)C(=O)N1C[C@H](OC(=O)N2Cc3cccc(Cl)c3C2)C[C@H]1C(=O)N[C@]1(C(=O)NS(=O)(=O)C2CC2)C[C@H]1C1CC1 [Compound 292] | < 100 | < 100
13 | CC(C)(C)[C@H](Nc1cccc(C(F)(F)F)c1)C(=O)N1C[C@H](OC(=O)N2Cc3cccc(Cl)c3C2)C[C@H]1C(=O)N[C@]1(C(=O)NS(=O)(=O)C2(C)CC2)C[C@H]1C1CC1 [Compound 303] | < 100 | < 100
14 | C=C[C@@H]1C[C@]1(NC(=O)[C@@H]1C[C@@H](Oc2cc(-c3nc(C(C)C)cs3)nc3c(C)c(OC)ccc23)CN1C(=O)[C@@H](Nc1ccc(F)c(C(F)(F)F)c1)C(C)(C)C)C(=O)NS(=O)(=O)C1(C)CC1 [Compound 305] | < 100 | < 100
15 | CC[C@@H]1C[C@]1(NC(=O)[C@@H]1C[C@@H](OC(=O)N2Cc3ccc(NC(=O)COCCOCCOC)cc3C2)CN1C(=O)[C@@H](Nc1cc(F)cc(C(F)(F)F)c1)C(C)(C)C)C(=O)NS(=O)(=O)C1CC1 [Compound 18] | 100 to 1000 | 100 to 1000
16 | CC[C@@H]1C[C@]1(NC(=O)[C@@H]1C[C@@H](OC(=O)N2Cc3cccc(F)c3C2)CN1C(=O)[C@@H](Nc1cccc(C(=O)NCCN(C)C)c1)C(C)(C)C)C(=O)NS(=O)(=O)C1CC1 [Compound 13] | > 1000 | < 100
